This passage reports melting point results from patent US8143261B2, “Thiazolo (4,5-D) pyrimidine compounds” (AstraZeneca AB, priority 1999, dated 2012).

In general, melting point refers to the temperature of the solid-liquid transition. Compound `COCC(CO)Nc1nc(SCc2cccc(F)c2F)nc2[nH]c(=O)sc12.[Na]` (racemic) registered a melting point of more than 250 °C. Under `CC(COCCO)Nc1nc(SCc2cccc(F)c2F)nc2[nH]c(=O)sc12` (racemic) [Example 11, (+/−)-5-[[(2,3-difluorophenyl)methyl]thio]-7-[[2-(2-hydroxyethoxy)-1-methylethyl]amino]thiazolo[4,5-d]pyrimidin-2(3H)-one] stands 221 to 222 °C. `CC(C)(CO)Nc1nc(SCc2ccccc2)nc2[nH]c(=O)sc12` [Example 1, 7-[(2-Hydroxy-1,1-dimethylethyl)amino]-5-[(phenylmethyl)thio]thiazolo[4,5-d]pyrimidin-2(3H)-one] came in with a melting point of 207 to 208 °C. The figure for `O=c1[nH]c2nc(SCc3cccc(F)c3F)nc(NC(CO)CO)c2s1` [Example 7, 5-[[(2,3-difluorophenyl)methyl]thio]-7-[[2-hydroxy-1-(hydroxymethyl)ethyl]amino]thiazolo[4,5-d]pyrimidin-2(3H)-one] is 178 to 179 °C; for `NCCNc1nc(SCc2cccc(F)c2F)nc2[nH]c(=O)sc12` [Example 8, 7-[(2-aminoethyl)amino]-5-[[(2,3-difluorophenyl)methyl]thio]thiazolo[4,5-d]pyrimidin-2(3H)-one] it is 215 to 216 °C. Take `O=c1[nH]c2nc(SCc3cccc(F)c3F)nc(NCCO)c2s1` [Example 9, 5-[[(2,3-difluorophenyl)methyl]thio]-7-[(2-hydroxyethyl)amino]thiazolo[4,5-d]pyrimidin-2(3H)-one]: the melting point lay in the range of 217 to 219 °C. In turn, `CS(=O)(=O)NCCNc1nc(SCc2cccc(F)c2F)nc2[nH]c(=O)sc12` [Example 10, N-[2-[[5-[[(2,3-difluorophenyl)methyl]thio]-2,3-dihydro-2-oxothiazolo[4,5-d]pyrimidin-7-yl]amino]ethyl]methanesulfonamide] yielded a melting point of 225 to 226 °C. With `O=c1[nH]c2nc(SCc3cccc(F)c3F)nc(N[C@@H]3CNC[C@H]3O)c2s1` [Example 18, 5-[[(2,3-Difluorophenyl)methyl]thio]-7-[[(3R,4R)-4-hydroxypyrrolidin-3-yl]amino]-thiazolo[4,5-d]pyrimidin-2(3H)-one], the melting point was 270 °C (dec.). `Cc1nc(CSc2nc(NC(CO)CO)c3sc(=O)[nH]c3n2)cs1` [Example 21, 7-[[2-Hydroxy-1-(hydroxymethyl)ethyl]amino]-5-[[(2-methyl-4-thiazolyl)methyl]thio]thiazolo[4,5-d]pyrimidin-2(3H)-one] came in with a melting point of 239 to 243 °C.

With `Cc1nc(CSc2nc(NC(C)(C)CO)c3sc(=O)[nH]c3n2)cs1` [Example 22, 7-[(2-Hydroxy-1,1-dimethylethyl)amino]-5-[[(2-methyl-4-thiazolyl)methyl]thio]thiazolo[4,5-d]pyrimidin-2(3H)-one], the melting point was in the range of 231 to 232 °C.

Regarding `C[C@H](CN)Nc1nc(SCc2cccc(Cl)c2F)nc2[nH]c(=O)sc12` [Example 25, 7-[[(1R)-2-Amino-1-methylethyl]amino]-5-[[(3-chloro-2-fluorophenyl)methyl]thio]thiazolo[4,5-d]pyrimidin-2(3H)-one], the melting point fell in the range of 241 to 243 °C. With `NC(=O)[C@H](CO)Nc1nc(SCc2cccc(F)c2F)nc2[nH]c(=O)sc12` [Example 26, (2S)-2-[[5-[[(2,3-Difluorophenyl)methyl]thio]-2,3-dihydro-2-oxothiazolo[4,5-d]pyrimidin-7-yl]amino]-3-hydroxy-propanamide], the melting point fell in the range of 145 to 151 °C.
